Legend:
[1] = tested on: pancreatic acini; assay: Cell death assays of pancreatic acini (LDH release, Live/Dead, live-cell imaging); format: cell-based
Protocol: The viability of pancreatic acini with Yoda1 and CCK treatments was analyzed using the Live/Dead Cell Imaging Kit (Thermo Fisher Scientific, catalog R37601) or the LDH Release Assay Kit (Promega, catalog G1780).

[2] = tested on: PSCs; assay: PSC viability (Live/Dead Cell Imaging Kit); format: cell-based; conditions: Yoda1 25 μM for 2 hr
Protocol: Mouse and human PSCs were isolated using collagenase digestion. Modified Krebs Henseleit Buffer (KHB) solution (100 mL) was prepared as previously described by Romac et al., Nat. Commun. 9(1):1715 (2018). Pancreatic tissue was digested with 2 mg of collagenase NB 8 (SERVA, catalog 17456) dissolved in 10 mL of modified KHB solution containing 1 mg soybean trypsin inhibitor (SBTI 1-S; Millipore Sigma, catalog T9003) and 20 mg BSA (Thermo Fisher Scientific; BP1600-100). Digestion solution (5 mL) was used to inflate the pancreas. Pancreas with 5 mL of digestion solution was incubated in a shaking water bath for 10 minutes at 37° C. The solution was then discarded. The pancreas tissue was cut into small pieces and digested with fresh 5 mL digestion buffer. Tissue was incubated in a shaking water bath for 40 minutes at 37° C. The cells were then separated from tissue by pipetting up-down with a 10 mL pipette and passed sequentially through a 70 μm and a 40 μm cell strainer. The filtrate was centrifuged at 150×g for 3 minutes at room temperature. The cells were washed with 10 mL Leibovitz's media (Thermo Fisher Scientific, catalog 11415-064), passed through a 20 μm filter, and centrifuged at 80×g for 3 minutes at room temperature. […] The cell viability following Yoda1 treatment was analyzed using the Live/Dead cell imaging kit (Thermo Fisher Scientific, catalog R37601). […]

[3] = target: T1, TRPV4 (Mus musculus, UniProt Q9EPK8); assay: Calcium imaging of TRPV4-mediated [Ca2+]i in mouse PSCs; format: cell-based; conditions: Yoda1 25 μM
T1 construct: endogenous in cells; host or cells: freshly isolated mouse pancreatic acini (C57BL/6J WT)
T1 sequence (Q9EPK8 whole entry): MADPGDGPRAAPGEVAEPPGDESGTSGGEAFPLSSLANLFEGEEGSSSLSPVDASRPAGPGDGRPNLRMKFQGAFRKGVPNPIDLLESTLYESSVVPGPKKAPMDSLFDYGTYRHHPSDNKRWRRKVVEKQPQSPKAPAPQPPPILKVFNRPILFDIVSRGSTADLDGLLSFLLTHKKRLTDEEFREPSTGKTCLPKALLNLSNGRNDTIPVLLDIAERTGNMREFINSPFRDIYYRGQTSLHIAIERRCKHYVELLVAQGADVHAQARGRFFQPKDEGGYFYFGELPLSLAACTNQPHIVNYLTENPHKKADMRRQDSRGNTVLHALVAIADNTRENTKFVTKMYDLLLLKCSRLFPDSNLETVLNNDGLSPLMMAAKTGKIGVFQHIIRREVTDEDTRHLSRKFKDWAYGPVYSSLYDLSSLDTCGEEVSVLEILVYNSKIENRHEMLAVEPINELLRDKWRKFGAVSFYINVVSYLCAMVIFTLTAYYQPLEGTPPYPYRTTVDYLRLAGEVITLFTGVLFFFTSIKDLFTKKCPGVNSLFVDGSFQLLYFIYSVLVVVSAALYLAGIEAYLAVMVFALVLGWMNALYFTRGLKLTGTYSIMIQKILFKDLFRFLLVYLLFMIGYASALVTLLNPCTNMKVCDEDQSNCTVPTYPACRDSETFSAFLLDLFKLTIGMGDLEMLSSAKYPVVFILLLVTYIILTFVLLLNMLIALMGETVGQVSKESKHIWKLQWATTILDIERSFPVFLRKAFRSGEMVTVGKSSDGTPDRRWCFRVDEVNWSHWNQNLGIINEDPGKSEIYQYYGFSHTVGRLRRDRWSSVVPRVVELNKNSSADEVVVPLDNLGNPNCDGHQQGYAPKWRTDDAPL
Protocol: Mouse and human PSCs were isolated using collagenase digestion. Modified Krebs Henseleit Buffer (KHB) solution (100 mL) was prepared as previously described by Romac et al., Nat. Commun. 9(1):1715 (2018). Pancreatic tissue was digested with 2 mg of collagenase NB 8 (SERVA, catalog 17456) dissolved in 10 mL of modified KHB solution containing 1 mg soybean trypsin inhibitor (SBTI 1-S; Millipore Sigma, catalog T9003) and 20 mg BSA (Thermo Fisher Scientific; BP1600-100). Digestion solution (5 mL) was used to inflate the pancreas. Pancreas with 5 mL of digestion solution was incubated in a shaking water bath for 10 minutes at 37° C. The solution was then discarded. The pancreas tissue was cut into small pieces and digested with fresh 5 mL digestion buffer. Tissue was incubated in a shaking water bath for 40 minutes at 37° C. The cells were then separated from tissue by pipetting up-down with a 10 mL pipette and passed sequentially through a 70 μm and a 40 μm cell strainer. The filtrate was centrifuged at 150×g for 3 minutes at room temperature. The cells were washed with 10 mL Leibovitz's media (Thermo Fisher Scientific, catalog 11415-064), passed through a 20 μm filter, and centrifuged at 80×g for 3 minutes at room temperature. The supernate was removed, and isolated stellate cells were plated on a thin-layered Matrigel-coated glass bottom culture plate (MatTek, P35G-0-14-C). Before plating the cells, Matrigel solution (Corning, catalog 354234) at a ratio of 1.5:100 DMEM/F12 (Thermo Fisher Scientific, catalog 11330-032) was poured onto the culture plate and incubated for 2 hr at 37° C. to form a thin layer of Matrigel coating. Matrigel mixture was removed, and the plate was washed with PBS before cells were plated. Cell culture media, DMEM/F12 with 5% FBS was used for mouse stellate cells. Fresh, human pancreatic tissue was digested with collagenase as described above with modifications. […] The cell viability following Yoda1 treatment was analyzed using the Live/Dead cell imaging kit (Thermo Fisher Scientific, catalog R37601). […]

[4] = target: T2, Piezo1 (Homo sapiens, UniProt Q92508); assay: Calcium imaging of Piezo1-mediated [Ca2+]i in human PSCs; format: cell-based; conditions: Yoda1 25 μM, quiescent PSCs
T2 construct: Fresh, human pancreatic tissue was digested with collagenase as described above with modifications; endogenous in cells; host or cells: primary human pancreatic stellate cells from fresh human pancreatic tissue
Protocol: Mouse and human PSCs were isolated using collagenase digestion. Modified Krebs Henseleit Buffer (KHB) solution (100 mL) was prepared as previously described by Romac et al., Nat. Commun. 9(1):1715 (2018). Pancreatic tissue was digested with 2 mg of collagenase NB 8 (SERVA, catalog 17456) dissolved in 10 mL of modified KHB solution containing 1 mg soybean trypsin inhibitor (SBTI 1-S; Millipore Sigma, catalog T9003) and 20 mg BSA (Thermo Fisher Scientific; BP1600-100). Digestion solution (5 mL) was used to inflate the pancreas. Pancreas with 5 mL of digestion solution was incubated in a shaking water bath for 10 minutes at 37° C. The solution was then discarded. The pancreas tissue was cut into small pieces and digested with fresh 5 mL digestion buffer. Tissue was incubated in a shaking water bath for 40 minutes at 37° C. The cells were then separated from tissue by pipetting up-down with a 10 mL pipette and passed sequentially through a 70 μm and a 40 μm cell strainer. The filtrate was centrifuged at 150×g for 3 minutes at room temperature. The cells were washed with 10 mL Leibovitz's media (Thermo Fisher Scientific, catalog 11415-064), passed through a 20 μm filter, and centrifuged at 80×g for 3 minutes at room temperature. The supernate was removed, and isolated stellate cells were plated on a thin-layered Matrigel-coated glass bottom culture plate (MatTek, P35G-0-14-C). […] The cell viability following Yoda1 treatment was analyzed using the Live/Dead cell imaging kit (Thermo Fisher Scientific, catalog R37601). […]
Fluid shear stress and mechanical pushing applied to stellate cells were achieved as previously described by Wang et al., J. Clin. Invest. […] The fluid shear stress (T) was calculated using the formula: τ=η×[…] φ for μ-Slide I 0.4 Luer and τ=η×330.4 φ for μ-Slide I 0.2 Luer, where r represents viscosity of the medium and φ represents flow rate (according to the manufacturer's instructions, Ibidi). […]

[5] = tested on: pancreatic acini; assay: Trypsinogen activation in pancreatic acini (BZiPAR); format: cell-based, mouse
Protocol: To visualize Piezo1-induced trypsinogen activation, acini were loaded with active trypsin enzyme substrate BZiPAR (10 μM). Na-HEPES buffer with 2 mM Ca^2+ was used during imaging. A Zeiss Axio observer Z1 with a high-sensitivity EMCCD camera with a ×40/0.75 EC-Plan-NeoFluar DIC objective was used to capture the Z-stack images with stack thickness of 3 μm at an interval of 12 seconds. The BZiPAR fluorescent wavelength Ex/Em was 498/521 nm. BZiPAR was excited at 470-510 nm and emission collected at 495-550 nm. The captured images were analyzed with MetaMorph software (Molecular Devices).

[6] = tested on: Yes-associated protein (YAP); assay: YAP nuclear localization in mouse stellate cells (immunostaining); format: cell-based; conditions: Yoda1 25 μM for 4 hr
Protocol: Murine stellate cells from wild type or Piezo1^GFAPKO mice were activated with 25 μM Yoda 1 for 4 hours before fixation. Immunostaining staining was performed as described in Swain et al. JCI Insight 7:e158288 (2022). Yap antibody was diluted at 1/100.

[7] = target: T3, Piezo1 (Mus musculus, UniProt E2JF22); assay: Calcium imaging of Piezo1-mediated [Ca2+]i in mouse PSCs; format: cell-based
T3 construct: endogenous in cells; host or cells: freshly isolated mouse pancreatic acini (WT = Piezo1 fl/fl on a C57BL/6J background)
T3 sequence (E2JF22 whole entry): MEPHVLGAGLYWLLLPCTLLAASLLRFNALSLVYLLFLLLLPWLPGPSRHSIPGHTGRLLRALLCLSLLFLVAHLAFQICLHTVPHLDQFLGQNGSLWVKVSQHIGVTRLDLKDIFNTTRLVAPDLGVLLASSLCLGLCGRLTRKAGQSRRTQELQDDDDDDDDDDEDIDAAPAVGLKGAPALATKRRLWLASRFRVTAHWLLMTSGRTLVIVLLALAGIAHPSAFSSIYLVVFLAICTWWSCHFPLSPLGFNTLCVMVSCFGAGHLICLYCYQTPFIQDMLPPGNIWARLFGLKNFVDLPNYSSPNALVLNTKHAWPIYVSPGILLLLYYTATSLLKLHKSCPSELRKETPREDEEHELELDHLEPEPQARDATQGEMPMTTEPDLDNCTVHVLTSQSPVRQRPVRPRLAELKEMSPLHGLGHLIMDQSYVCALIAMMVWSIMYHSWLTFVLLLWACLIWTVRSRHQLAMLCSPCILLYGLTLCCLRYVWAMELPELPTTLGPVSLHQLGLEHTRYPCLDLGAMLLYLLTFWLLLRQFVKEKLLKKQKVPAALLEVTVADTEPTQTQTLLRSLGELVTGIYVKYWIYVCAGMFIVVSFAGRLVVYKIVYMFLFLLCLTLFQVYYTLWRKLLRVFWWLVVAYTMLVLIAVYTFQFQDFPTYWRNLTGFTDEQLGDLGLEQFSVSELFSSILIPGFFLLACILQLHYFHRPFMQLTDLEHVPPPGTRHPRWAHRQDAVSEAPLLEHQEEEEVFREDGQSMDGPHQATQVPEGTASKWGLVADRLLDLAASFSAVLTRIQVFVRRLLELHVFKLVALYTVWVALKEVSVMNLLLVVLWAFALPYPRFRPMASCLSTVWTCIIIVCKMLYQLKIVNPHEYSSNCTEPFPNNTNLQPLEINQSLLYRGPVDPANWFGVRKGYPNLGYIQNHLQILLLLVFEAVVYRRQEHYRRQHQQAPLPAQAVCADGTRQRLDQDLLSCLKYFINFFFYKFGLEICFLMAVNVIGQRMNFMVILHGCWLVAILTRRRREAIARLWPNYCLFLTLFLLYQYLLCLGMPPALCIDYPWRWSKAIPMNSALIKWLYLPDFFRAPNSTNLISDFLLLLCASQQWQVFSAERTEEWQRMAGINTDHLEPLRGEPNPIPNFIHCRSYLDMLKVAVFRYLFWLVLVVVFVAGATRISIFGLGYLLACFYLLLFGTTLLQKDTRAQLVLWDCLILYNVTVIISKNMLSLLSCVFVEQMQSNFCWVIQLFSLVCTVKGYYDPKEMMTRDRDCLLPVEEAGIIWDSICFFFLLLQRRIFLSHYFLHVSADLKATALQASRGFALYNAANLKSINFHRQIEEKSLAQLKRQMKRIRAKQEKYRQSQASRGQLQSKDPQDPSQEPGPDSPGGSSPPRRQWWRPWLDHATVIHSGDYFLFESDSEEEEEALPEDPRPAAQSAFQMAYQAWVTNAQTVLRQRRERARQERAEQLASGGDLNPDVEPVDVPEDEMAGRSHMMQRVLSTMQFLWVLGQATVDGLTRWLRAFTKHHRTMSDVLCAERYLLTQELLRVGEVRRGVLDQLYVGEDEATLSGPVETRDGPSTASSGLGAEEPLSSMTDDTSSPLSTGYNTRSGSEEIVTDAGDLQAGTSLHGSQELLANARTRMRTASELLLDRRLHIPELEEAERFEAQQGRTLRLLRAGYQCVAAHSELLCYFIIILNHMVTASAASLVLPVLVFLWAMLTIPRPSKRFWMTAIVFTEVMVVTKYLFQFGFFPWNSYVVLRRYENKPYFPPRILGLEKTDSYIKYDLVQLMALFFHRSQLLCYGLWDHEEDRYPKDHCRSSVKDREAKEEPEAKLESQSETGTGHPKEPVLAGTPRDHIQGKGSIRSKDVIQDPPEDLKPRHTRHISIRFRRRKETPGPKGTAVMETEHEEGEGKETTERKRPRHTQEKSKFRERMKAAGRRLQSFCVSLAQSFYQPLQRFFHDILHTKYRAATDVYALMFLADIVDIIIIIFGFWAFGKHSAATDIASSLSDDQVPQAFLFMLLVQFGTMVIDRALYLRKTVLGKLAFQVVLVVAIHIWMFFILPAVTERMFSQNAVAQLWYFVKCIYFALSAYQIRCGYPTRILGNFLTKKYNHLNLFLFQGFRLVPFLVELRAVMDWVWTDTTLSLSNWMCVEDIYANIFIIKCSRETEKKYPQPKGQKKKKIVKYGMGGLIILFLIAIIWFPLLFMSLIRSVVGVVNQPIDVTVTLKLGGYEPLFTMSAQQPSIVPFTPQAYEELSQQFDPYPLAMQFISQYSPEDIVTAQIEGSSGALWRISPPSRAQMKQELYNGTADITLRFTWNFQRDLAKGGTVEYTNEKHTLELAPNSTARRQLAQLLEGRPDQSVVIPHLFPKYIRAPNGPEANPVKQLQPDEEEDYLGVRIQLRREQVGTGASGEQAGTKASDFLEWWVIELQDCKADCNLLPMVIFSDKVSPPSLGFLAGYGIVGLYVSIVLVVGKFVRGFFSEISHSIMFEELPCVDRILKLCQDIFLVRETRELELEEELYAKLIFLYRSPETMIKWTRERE
Protocol: Mouse and human PSCs were isolated using collagenase digestion. Modified Krebs Henseleit Buffer (KHB) solution (100 mL) was prepared as previously described by Romac et al., Nat. Commun. 9(1):1715 (2018). Pancreatic tissue was digested with 2 mg of collagenase NB 8 (SERVA, catalog 17456) dissolved in 10 mL of modified KHB solution containing 1 mg soybean trypsin inhibitor (SBTI 1-S; Millipore Sigma, catalog T9003) and 20 mg BSA (Thermo Fisher Scientific; BP1600-100). Digestion solution (5 mL) was used to inflate the pancreas. Pancreas with 5 mL of digestion solution was incubated in a shaking water bath for 10 minutes at 37° C. The solution was then discarded. The pancreas tissue was cut into small pieces and digested with fresh 5 mL digestion buffer. Tissue was incubated in a shaking water bath for 40 minutes at 37° C. The cells were then separated from tissue by pipetting up-down with a 10 mL pipette and passed sequentially through a 70 μm and a 40 μm cell strainer. The filtrate was centrifuged at 150×g for 3 minutes at room temperature. The cells were washed with 10 mL Leibovitz's media (Thermo Fisher Scientific, catalog 11415-064), passed through a 20 μm filter, and centrifuged at 80×g for 3 minutes at room temperature. The supernate was removed, and isolated stellate cells were plated on a thin-layered Matrigel-coated glass bottom culture plate (MatTek, P35G-0-14-C). Before plating the cells, Matrigel solution (Corning, catalog 354234) at a ratio of 1.5:100 DMEM/F12 (Thermo Fisher Scientific, catalog 11330-032) was poured onto the culture plate and incubated for 2 hr at 37° C. to form a thin layer of Matrigel coating. Matrigel mixture was removed, and the plate was washed with PBS before cells were plated. Cell culture media, DMEM/F12 with 5% FBS was used for mouse stellate cells. Fresh, human pancreatic tissue was digested with collagenase as described above with modifications. Collagenase (2.5 mg) in 10 mL of modified KHB solution was used for digestion. The digested tissues were filtered through a 100 μm cell strainer. The cells were cultured with DMEM/F12 with 10% FBS in a Matrigel-coated plate. After 24 hr, the cell media was replaced with fresh media to remove unattached and dead cells. After 2 days, cells were immunostained for GFAP and used for experiments. Perinuclear fat droplets were stained with BODIPY 493/503 (4,4-Difluoro-1,3,5,7,8-Pentamethyl-4-Bora-3a,4a-Diaza-s-Indacene; Invitrogen, catalog D3922) to confirm stellate cell quiescence. The cell viability following Yoda1 treatment was analyzed using the Live/Dead cell imaging kit (Thermo Fisher Scientific, catalog R37601). RNAs were isolated using the RiboPure Kit (Invitrogen, catalog AM1924) according to manufacturer's instructions.
Fluid shear stress and mechanical pushing applied to stellate cells were achieved as previously described by Wang et al., J. Clin. Invest. 126(12): 4527-4536 (2016). Parallel-plate fluid flow chambers (μ-Slide I 0.4 Luer, or μ-Slide I 0.2 Luer from Ibidi) were used for fluid shear stress experiments. The fluid shear stress (T) was calculated using the formula: τ=η×[…] φ for μ-Slide I 0.4 Luer and τ=η×330.4 φ for μ-Slide I 0.2 Luer, where r represents viscosity of the medium and φ represents flow rate (according to the manufacturer's instructions, Ibidi). Mechanical pushing was achieved by applying a blunt borosilicate glass pipette once to the cell membrane with a deflection of 2-3 μm for 1 second using a micromanipulator (World Precision Instruments).
Calcium 6-QF (Molecular Devices) dye was used for live-cell calcium imaging as described by Romac et al., Nat. Commun. 9(1):1715 (2018). Cells were imaged in HBSS buffer with 2 mM Ca^2+. Faintly and highly fluorescent loaded cells were excluded from analysis. […]

Q: Which results are given for Clc1cccc(Cl)c1CSc1nnc(-c2cnccn2)s1 [Yoda1]?
A: acinar cell death, both Yoda1 and CCK vs individual application ([1]; Yoda1 50 μM + CCK 1 nM, WT acini): acinar cell death was greater; acinar cell morphology by live-cell imaging ([1]; Yoda1 50 μM, WT acini): caused swelling of WT pancreatic acinar cells and release of zymogen granules from the basolateral surface and gradually ruptured the cell membrane; response of acinar cells from Piezo1aci-KO mice (live-cell imaging) ([1]; Yoda1, Piezo1aci-KO acini): did not respond to Yoda1; PSC viability and membrane integrity [2]: did not affect PSC viability and membrane integrity; [Ca2+]i response in TRPV4-null PSCs [3]: caused only transient calcium elevations in TRPV4-null PSCs; [Ca2+]i response to Yoda1 [4]: caused calcium overload in quiescent pancreatic stellate cells; trypsin activation in acinar cells from Piezo1aci-KO mice ([5]; Yoda1): did not respond to Yoda1; trypsin activation (BZiPAR fluorescence) ([5]; Yoda1 50 μM or CCK 10 nM): activated trypsin in pancreatic acini over time; time to trypsin activation after application ([5]; Yoda1 50 μM, CCK 10 nM): ≤ 10 min; YAP nuclear localization in stellate cells from Piezo1GFAP-KO mice [6]: No changes were observed; YAP nuclear localization ([6]; wild-type stellate cells, preliminary): increases YAP nuclear localization; Yoda1-stimulated [Ca2+]i increase in Piezo1-deleted PSCs ([7]; Yoda1 25 μM, Piezo1GFAP-KO): absent in Piezo1-deleted PSCs; [Ca2+]i response to Yoda1 ([7]; mouse PSCs): dose-dependent increases in [Ca^2+]i elevation

Reference: patent US20250352615A1, “COMPOSITIONS AND METHODS FOR THE MODULATION OF PIEZO1 AND TRPV4” (Duke University, priority 2021, published 2025)
